Test results from patent US7914780B1, “Aminopeptidase A (APA) targeting peptides for the treatment of cancer” (Board of Regents, the University of Texas System, priority 2000, dated 2011).
Peptide text beside a SMILES is read from it.

Key:
HMECs [1] = experiment: Endothelial cell growth assay (crystal violet); format: cell-based, human
Experimental: HMECs were seeded (˜10,000 cells/well) and allowed to attach for 24 hours in complete M199 medium (Sigma; St. Louis, Mo.). The indicated concentrations of […] (SEQ ID NO:2) or 1 mM negative control peptide were added to the cells in complete M199 medium. HMECs were then serially fixed in 2.5% glutaraldehyde, stained with 0.1% crystal violet in 20% methanol, and solubilized in 10% acetic acid. Cell growth was evaluated by measuring absorbance at 590 nm. A calibration curve with linear correlation between absorbance and cell number (103-105 HMECs) was used for the assay.
(§1) Because of the enzymatic inhibitory activity of APA-binding peptides, the inventors reasoned that they might affect endothelial cell function. The inventors correlated the effect of APA inhibition by the […] (SEQ ID NO:2) peptide on the migration and proliferation of endothelial cells. The inventors used human dermal microvascular endothelial cells (HMEC) in which the APA expression was verified by immunostaining with RC38 and the APA activity by its specific enzyme assay. […] (SEQ ID NO:2) peptide suppressed the migration of HMECs in the Boyden chamber assay (FIG. 3B). Suppression in cell migration was dose-dependent and commensurate with inhibition of APA enzymatic activity. […] Similarly, proliferation of HMECs was suppressed by […] (SEQ ID NO:2) (˜40% at 1 mM) in a dose-dependent manner (FIG. 3C).

[2] = test system: VEGF-induced CAM neovascularization; experiment: Chick embryo chorioallantoic membrane (CAM) assay; format: in vivo, chicken
Experimental: Fertilized chicken eggs were incubated in constant humidity at 37° C. for 3 days. Two to three ml of albumin was removed through a square opening to detach the developing CAM. The opening was sealed with a glass plate and the eggs were incubated for 5 days. […] […] CAMs were examined daily until day 12, photographed in ovo with a stereomicroscope and emerging capillaries were counted (Ribatti et al., 1997).
In this in vivo model, neovascularization is stimulated with VEGF adsorbed on to a gelatin sponge placed on the CAM. […] CAMs were examined on E12 and neovascularization was quantified by counting the number of emerging capillaries (FIG. 4B). Significant induction of neovascularization (57.0±1.41 blood vessels) was found when a sponge with VEGF was placed on the CAM compared to a sponge with no growth factors (12.0±2.8 blood vessels; t-test, P<0.01). […]

HMECs [3] = experiment: Chemotaxic (Boyden chamber) cell migration assay; format: cell-based, human
Experimental: Cell migration assays were performed in a 48-well Boyden chamber (NeuroProbe; Gaithersburg, Md.) as described (Bussolino et al., 1995). Indicated concentrations of […] (SEQ ID NO:2) peptide or negative control peptide (1 mM) were placed in the lower chamber compartment in complete M199 medium. Subconfluent HMECs were harvested and 1×10^5 cells were seeded in the upper chamber compartment in complete M199 medium. Cells were allowed to migrate for 5 h at 37° C. in a humidified 5% CO2 atmosphere. Filter was removed and cells on the upper side were scraped off. Migrated cells were fixed and Giemsa-stained.
as §1

[4] = target: T1, APA-transfected SK-RC-49 cells (Homo sapiens, UniProt Q07075); experiment: Cell surface panning of CX3CX3CX3C phage display library on APA-transfected cells; format: binding; conditions: for Round 2 (%) - share of randomly selected phage clones displaying the sequence: after second round of panning on SK-RC-49/APA cells
T1 construct: stably transfected with a mammalian expression vector encoding the full-length APA cDNA; expressed in transfected cells; host or cells: SK-RC-49 renal carcinoma cells (SK-RC-49/APA)
Experimental: Briefly, 10^10 transducing units (TU) of a CX3CX3CX3C (SEQ ID NO:14; C, cysteine; X, any amino acid residue) phage display random library are pre-absorbed on SK-RC-49 parental cells. The pre-cleared CX3CX3CX3C phage library (˜10^10 TU) is added to 106 detached APA-transfected SK-RC-49 cells in binding medium (20 mM HEPES, 2% FCS in DMEM). Cell panning was performed at 4° C. to minimize post-binding events such as receptor-mediated internalization (Giordano et al., 2001). Cells were washed with binding medium and cell bound phage were recovered and amplified by infection of K91Kan E. coli. Serial dilutions were plated on Luria-Bertani (LB) agar plates with tetracycline and kanamycin. The number of TU was determined by bacterial colony counting.
The inventors pre adsorbed 1010 transducing units (TU) of a CX3CX3CX3C (C, cysteine; X, any amino acid residue; SEQ ID NO:14) phage display random library on SK-RC-49 parental cells. Next, the pre-cleared CX3CX3CX3C (SEQ ID NO:14) phage library (˜1010 TU) was added to 106 detached APA-transfected SK-RC-49 cells in binding medium (20 mM HEPES, 2% FCS in DMEM). Cell panning was performed at 4° C. to minimize post-binding events such as receptor-mediated internalization (Giordano et al., 2001). Cells were washed with binding medium and cell bound phage were recovered and amplified by infection of K91 Kan E. coli. Serial dilutions were plated on Luria-Bertani (LB) agar plates with tetracycline and kanamycin. The number of TU was determined by bacterial colony counting.
To identify peptides capable of binding to APA, the inventors screened APA-transfected cells with a phage display library (Smith and Scott, 1993). The inventors stably transfected SK-RC-49 renal carcinoma cells with a vector expressing full-length APA cDNA. APA functionality was verified in transfected cells by an enzyme activity assay specific for APA.

SK-RC-49/APA cells = target: T2, SK-RC-49/APA cells (Homo sapiens, UniProt Q07075); experiment: Phage binding assay on SK-RC-49/APA cells versus SK-RC-49 cells; conditions: for Phage binding to SK-RC-49/APA cells relative to SK-RC-49 cells: individual phage clones
T2 construct: stably transfected with a mammalian expression vector encoding the full-length APA cDNA; expressed in transfected cells; host or cells: SK-RC-49 renal carcinoma cells (SK-RC-49/APA)
Experimental: Binding assays were performed on cells with 109 TU phage input. Increasing concentrations of synthetic […] (SEQ ID NO:2) or control peptides were used to evaluate competitive inhibition of phage binding. APA was immunocaptured on microtiter wells with RC38 and incubated with 109 TU of phage in 3% BSA in PBS. Wells were washed with 1% BSA, 0.01% Tween-20 in PBS and phage were recovered by infection of K91kan E. coli. Serial dilutions were plated on LB agar plates containing tetracycline and kanamycin. The number of TU was determined by bacterial colony counting.
Phage displaying enriched peptide motifs were tested individually for APA binding. Phage displaying the inserts […] (SEQ ID NO:3), […] (SEQ ID NO:1) or […] The inventors synthesized peptides containing APA-binding motifs (consensus sequence […] (SEQ ID NO:2); Table 1). Binding of phage displaying […] Binding of […] Whether the selected peptides would bind to the isolated APA protein was also evaluated. […] The inventors used phage displaying […] (SEQ ID NO:3), […] (SEQ ID NO:4), or […] (SEQ ID NO:1) in binding assays to the immunocaptured APA.

[5] = test system: MDA-MB-435 human breast carcinoma-derived tumor xenografts; experiment: Tumor homing of phage in vivo; set-up: species or system nude mice; conditions: intravenous
Experimental: Nude mice bearing tumor xenografts derived from MDA-MB-435 human breast cancer cells were generated as described (Arap et al., 1998). 109 TU of […] (SEQ ID NO:8)-displaying phage or fd-tet phage were injected intravenously to anesthetized mice. Phage were allowed to circulate for 5 minutes and the animals were perfused through the left ventricle of the heart with DMEM. The tumor and control organs were dissected and equal amounts of tissue were homogenized. Homogenates were washed with ice-cold DMEM containing a protease inhibitor cocktail (Sigma; St. Louis, Mo.) and 0.1% BSA. Tissue-bound phage were recovered as described above the cell panning. Tissue samples from the injected animals were fixed, sectioned at 5 μm and stained with an anti-M13 antibody.
The inventors next evaluated the ability of APA binding peptides to home to tumor blood vessels in vivo. Phage were administered intravenously to nude mice bearing human breast carcinoma MDA-MB-435-derived xenografts. Phage homing was quantified by recovery from tissue homogenates by bacterial infection. […] […] Homing of […] (SEQ ID NO:3) phage to tumor vasculature was confirmed by immunohistochemical staining of phage on tissue sections.

aminopeptidase N = aminopeptidase N (Homo sapiens, UniProt P15144); experiment: Aminopeptidase N enzymatic activity; format: biochemical
HMECs [6] = experiment: Three-dimensional cell culture on Matrigel (cord/tube formation); format: cell-based, human
Experimental: Matrigel (BD Biosciences; Bedford, Mass.) was added to 48-well tissue culture plates and allowed to solidify at 37° C. HMECs (˜10^4 cells) were added to the wells and allowed to adhere to the Matrigel for 30 minutes at 37° C. Cell medium was replaced containing the indicated concentrations of […] (SEQ ID NO:2) or a negative control peptide (both at 1 mM) in complete medium. Plates were examined and photographed after 16 hours.
To determine whether inhibition of APA enzyme activity with […] (SEQ ID NO:2) peptide would affect angiogenesis, the effect of the peptide was tested in vitro and in vivo. First, the inventors evaluated the ability of HMECs to differentiate into capillary-like structures characteristic of angiogenesis in the presence of […] (SEQ ID NO:2) on a gel of reconstituted basement membrane matrix (Matrigel). The formation of cord/tube-like structures was progressively impaired by increasing concentrations of […] (SEQ ID NO:2) peptide, relative to the network formation in controls without peptide (FIG. 4A, upper left panel) or with an unrelated control peptide at 1 mM concentration (FIG. 4A, upper right panel). The number and length of capillary-like branching structures was reduced at 0.3 mM […] […]

EF43-fgf4-derived tumors = experiment: Experimental therapy of EF43-fgf4-derived tumors; format: in vivo, Balb/c mice
Experimental: For experimental therapy, Balb/c mice bearing EF43-fgf4-derived tumors were established and tumor volumes determined as described (Deroanne et al., 1997; Hajitou et al., 2001). Treatments in tumor-bearing mice were started 5 (peptides) to 7 days (antibodies) after cell inoculation (10^5 cells/mouse). Reagents were administered by ip and sc routes.
Tumor-bearing mice received vehicle, [sequence] (SEQ ID NO:2) or control peptides and tumors were monitored (FIG. 7B).
The inventors used an established regimen of two anti-APA monoclonal antibodies (ASD-37/41) with synergistic APA inhibitory properties (Assmann et al., 1992, Mentzel et al., 1999) on the same animal model. Tumor-bearing mice received vehicle, ASD-37/41, or isotype control IgG and tumors were monitored (FIG. 7C).

[7] = negative control peptide (1 mM)
[8] = 1 mM peptide in VEGF-adsorbed sponge, E12
[9] = competition with synthetic peptide

T2 sequence (Q07075 whole entry): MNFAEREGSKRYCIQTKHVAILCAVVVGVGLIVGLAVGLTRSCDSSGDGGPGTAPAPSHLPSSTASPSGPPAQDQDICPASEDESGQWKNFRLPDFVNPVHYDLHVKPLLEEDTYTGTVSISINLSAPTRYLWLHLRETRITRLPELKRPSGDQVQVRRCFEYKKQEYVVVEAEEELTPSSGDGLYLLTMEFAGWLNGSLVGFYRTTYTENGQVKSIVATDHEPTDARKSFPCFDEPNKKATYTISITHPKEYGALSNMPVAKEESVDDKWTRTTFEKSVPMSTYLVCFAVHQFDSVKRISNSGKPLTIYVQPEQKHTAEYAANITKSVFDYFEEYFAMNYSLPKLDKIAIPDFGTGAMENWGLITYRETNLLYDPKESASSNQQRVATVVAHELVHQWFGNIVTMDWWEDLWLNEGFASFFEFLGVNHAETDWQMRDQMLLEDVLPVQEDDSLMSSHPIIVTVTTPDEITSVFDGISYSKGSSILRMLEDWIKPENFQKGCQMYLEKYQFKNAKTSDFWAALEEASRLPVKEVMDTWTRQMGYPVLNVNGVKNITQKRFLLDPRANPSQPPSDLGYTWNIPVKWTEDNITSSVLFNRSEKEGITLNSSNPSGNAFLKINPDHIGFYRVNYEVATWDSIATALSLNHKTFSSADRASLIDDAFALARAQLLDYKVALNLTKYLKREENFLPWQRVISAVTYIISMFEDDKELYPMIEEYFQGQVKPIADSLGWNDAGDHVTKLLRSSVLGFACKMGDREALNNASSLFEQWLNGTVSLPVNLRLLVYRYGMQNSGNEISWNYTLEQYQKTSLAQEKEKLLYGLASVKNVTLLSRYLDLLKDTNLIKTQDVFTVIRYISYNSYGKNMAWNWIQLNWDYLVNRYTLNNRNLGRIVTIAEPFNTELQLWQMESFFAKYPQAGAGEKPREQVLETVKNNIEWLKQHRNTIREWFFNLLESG
T1 sequence (Q07075 whole entry): as above
aminopeptidase N, sequence (P15144 whole entry, species assumed): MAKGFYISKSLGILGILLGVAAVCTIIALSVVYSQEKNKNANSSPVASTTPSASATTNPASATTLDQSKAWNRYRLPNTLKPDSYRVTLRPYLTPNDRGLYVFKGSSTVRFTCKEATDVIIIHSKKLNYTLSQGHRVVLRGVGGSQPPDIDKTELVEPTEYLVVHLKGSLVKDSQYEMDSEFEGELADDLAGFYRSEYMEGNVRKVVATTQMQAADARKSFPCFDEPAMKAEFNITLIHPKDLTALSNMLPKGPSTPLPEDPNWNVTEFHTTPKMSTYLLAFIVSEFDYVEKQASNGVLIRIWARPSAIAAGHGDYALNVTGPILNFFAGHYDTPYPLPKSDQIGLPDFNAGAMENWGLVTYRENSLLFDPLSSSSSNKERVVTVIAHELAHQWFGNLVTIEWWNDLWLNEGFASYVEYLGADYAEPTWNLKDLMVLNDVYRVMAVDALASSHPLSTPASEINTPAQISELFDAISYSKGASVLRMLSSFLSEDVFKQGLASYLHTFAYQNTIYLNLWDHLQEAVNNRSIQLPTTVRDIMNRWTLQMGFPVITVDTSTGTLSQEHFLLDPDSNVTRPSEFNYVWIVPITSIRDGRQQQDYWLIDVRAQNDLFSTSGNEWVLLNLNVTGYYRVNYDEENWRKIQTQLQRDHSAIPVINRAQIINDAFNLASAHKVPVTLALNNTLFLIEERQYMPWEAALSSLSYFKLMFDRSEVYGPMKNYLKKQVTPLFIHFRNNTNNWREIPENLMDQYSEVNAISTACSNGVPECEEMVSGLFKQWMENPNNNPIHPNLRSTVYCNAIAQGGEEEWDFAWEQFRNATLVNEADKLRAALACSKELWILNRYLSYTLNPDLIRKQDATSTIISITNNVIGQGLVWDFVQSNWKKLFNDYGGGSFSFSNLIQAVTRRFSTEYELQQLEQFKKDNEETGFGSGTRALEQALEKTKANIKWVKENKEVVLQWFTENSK

With “GACVRLSACGA [negative control peptide, unrelated synthetic peptide used as a negative control unless otherwise indicated, reference compound]” the “Effect on cell proliferation” value (HMECs [1]; [7]) was “affected neither cell migration nor proliferation”, the “Number of emerging capillaries” value [2, 8] was 56.5±2.12 blood vessels and the “Effect on cell migration” value (HMECs [3]; [7]) was “affected neither cell migration nor proliferation”.

CGTGCAVECEVVC was tested, and the “Round 2 (%) - share of randomly selected phage clones displaying the sequence” value [4] was 5%.

With “CYNLCIRECESICGADGACWTWCADGCSRSC (phage-displayed)” the “Round 2 (%) - share of randomly selected phage clones displaying the sequence” value [4] was 50%, the “Round 3 (%) - share of randomly selected phage clones displaying the sequence” value ([4]; after third round of panning on SK-RC-49/APA cells) was 100% and the “Effect of synthetic CPRECESIC peptide on phage binding to SK-RC-49/APA cells” value (SK-RC-49/APA cells; [9]) was “inhibited by the synthetic peptide”. For the same compound, the “Phage binding to SK-RC-49/APA cells relative to SK-RC-49 cells” value (SK-RC-49/APA cells) was “preferentially bound to SK-RC-49/APA cells”.

For CSGLCTVQCLEGC (phage-displayed), the “Round 2 (%) - share of randomly selected phage clones displaying the sequence” value [4] was 5%.

With CPKVCPRECESNC (phage-displayed) the “Phage homing by recovery from tissue homogenates” value ([5]; tumor versus control organs (brain)) was “enriched in tumors compared to control organs”, the “Phage homing by immunohistochemical staining of tissue sections” value ([5]; tumor versus normal brain blood vessels) was “Strong phage staining was observed in tumor blood vessels” and the “Round 2 (%) - share of randomly selected phage clones displaying the sequence” value [4] was 5%. For the same compound, the “Effect of synthetic […] peptide on phage binding to SK-RC-49/APA cells” value (SK-RC-49/APA cells; [9]) was “inhibited by the synthetic peptide” and the “Phage binding to SK-RC-49/APA cells relative to SK-RC-49 cells” value (SK-RC-49/APA cells) was “preferentially bound to SK-RC-49/APA cells”.

With `CC[C@H](C)[C@H](NC(=O)[C@H](CO)NC(=O)[C@H](CCC(=O)O)NC(=O)[C@H](CS)NC(=O)[C@H](CCC(=O)O)NC(=O)[C@H](CCCNC(=N)N)NC(=O)[C@@H]1CCCN1C(=O)[C@@H](N)CS)C(=O)N[C@@H](CS)C(=O)O` (H-CPRECESIC-OH) the “Inhibition of cell proliferation” value (HMECs [1]; 0.3 mM peptide) was “Inhibition of cell proliferation was also observed”, the “Suppression of proliferation of HMECs” value (HMECs [1]; 1 mM peptide) was ~40% and the “Effect on cell proliferation” value (HMECs [1]; peptide concentrations lower than 0.3 mM) was “no significant effect”. For the same compound, the “Effect on enzymatic activity of aminopeptidase N” value (aminopeptidase N) was “did not affect”, the “Effect on number or branching of the growing blood vessels” value ([2]; 0.1 mM and 0.3 mM peptide) was “did not affect” and the “Inhibition of VEGF-induced CAM neovascularization” value [2, 8] was 40%. The “Number of emerging capillaries” value [2, 8] was 35.5±1.4 blood vessels, the “Number and length of capillary-like branching structures” value (HMECs [6]; 0.3 mM peptide) was “reduced” and the “Cell interconnections and capillary network organization” value (HMECs [6]; 1 mM peptide) was “severely lost”. The “Inhibition of cell migration” value (HMECs [3]; 100 μM peptide) was “significant inhibition”, the “Suppression in cell migration” value (HMECs [3]; 1 mM peptide, 5 h) was “Up to 60%” and the Tumor volume (EF43-fgf4-derived tumors; peptides 250 μg/mouse/dose, end of two weeks) was 1,366±190 mm^3.

CLGQCASICVNDC was tested, and the “Round 2 (%) - share of randomly selected phage clones displaying the sequence” value [4] was 5%, the “Effect of synthetic […] peptide on phage binding to SK-RC-49/APA cells” value (SK-RC-49/APA cells; [9]) was “not affected by the synthetic peptide” and the “Phage binding to SK-RC-49/APA cells relative to SK-RC-49 cells” value (SK-RC-49/APA cells) was “preferentially bound to SK-RC-49/APA cells”.

For CPRECESN, the Efficacy in vivo (EF43-fgf4-derived tumors; mouse, in vivo) was “showed efficacy in vivo”.

In the case of CAVACWADCQLGC, the “Round 2 (%) - share of randomly selected phage clones displaying the sequence” value [4] is reported as 5%.

With CSMMCLEGCDDWC (phage-displayed) the “Round 2 (%) - share of randomly selected phage clones displaying the sequence” value [4] was 5%.
